{"source": "patent US20060235062A1", "about": "“Novel heterocyclic analogs of diphenylethylene compounds” (THERACOS, INC., priority 2002, published 2006)", "key": {"NF-kB p65": {"test_system": "NF-kB p65", "test": "NF-kB p65 activation in LPS-stimulated RAW cells (ELISA)", "type": "cell-based", "settings": "10 μM, 1 μg/ml LPS 15 min, FIG. 15"}, "ob/ob mice": {"test_system": "ob/ob mice", "test": "Antihyperglycemic activity and serum parameters in ob/ob mice", "type": "in vivo", "parameters": "decrease in triglyceride as compared to the control / lowering of FFA compared to the control / decrease in the GHb level compared to the control / reduction of serum insulin / reduction of triglycerides / reduction of free fatty acid (FFA) levels: concentration or dose not given beside the values"}, "COX-1": {"molecular_target": "T1, COX-1 (Mus musculus, UniProt P22437)", "T1 construct": "aliquots used to determine COX-2 and COX-1 activity; endogenous in cells; host or cells: RAW (RAW 264.7) cells", "T1 sequence (P22437 27-602)": "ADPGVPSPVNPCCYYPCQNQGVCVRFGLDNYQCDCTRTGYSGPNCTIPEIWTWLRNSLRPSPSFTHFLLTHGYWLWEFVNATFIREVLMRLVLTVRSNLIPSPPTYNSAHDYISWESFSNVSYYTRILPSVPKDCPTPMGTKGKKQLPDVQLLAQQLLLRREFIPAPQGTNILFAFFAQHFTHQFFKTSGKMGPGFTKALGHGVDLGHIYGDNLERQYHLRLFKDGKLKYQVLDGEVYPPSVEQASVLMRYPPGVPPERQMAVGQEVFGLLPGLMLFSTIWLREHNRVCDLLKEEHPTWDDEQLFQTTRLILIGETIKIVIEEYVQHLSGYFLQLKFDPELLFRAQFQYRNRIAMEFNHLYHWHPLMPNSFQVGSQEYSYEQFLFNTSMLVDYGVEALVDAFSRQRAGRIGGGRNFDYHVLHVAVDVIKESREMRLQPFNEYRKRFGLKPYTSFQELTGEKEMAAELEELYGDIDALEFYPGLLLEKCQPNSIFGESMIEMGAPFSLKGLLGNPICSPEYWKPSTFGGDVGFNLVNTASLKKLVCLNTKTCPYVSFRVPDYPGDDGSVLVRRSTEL", "test": "COX-1 activity in RAW cells", "type": "cell-based", "settings": "0.1-100 μM", "description": "After 1 hour LPS (0.1 pg/mL) was added and cells were incubated an additional 6 hours. Cell supernatant was then collected, aliquoted and frozen at −70° C., and aliquots used to determine COX-2 and COX-1 activity. Compound 11, but not rosiglitazone, inhibited the activity of COX-2 (as measured by PGE2 production in a 50 μl sample)."}, "IL-1-beta": {"test_system": "IL-1-beta", "test": "LPS-induced IL-1-beta production in RAW cells (ELISA)", "type": "cell-based", "settings": "RAW cells, 0.1, 1, 10, 50 or 100 pM, FIG. 11"}, "DBA/1 Lac mice": {"test_system": "DBA/1 Lac mice", "test": "Collagen-induced arthritis in mice", "type": "in vivo", "settings": "50 mg/kg orally daily for 17 days"}, "ZDF rats": {"test_system": "ZDF rats", "test": "Antihyperglycemic activity in Zucker diabetic fatty rats", "type": "in vivo"}, "PPAR-gamma": {"molecular_target": "T2, PPAR-gamma (Homo sapiens, UniProt P37231)", "T2 sequence (P37231 1-505)": "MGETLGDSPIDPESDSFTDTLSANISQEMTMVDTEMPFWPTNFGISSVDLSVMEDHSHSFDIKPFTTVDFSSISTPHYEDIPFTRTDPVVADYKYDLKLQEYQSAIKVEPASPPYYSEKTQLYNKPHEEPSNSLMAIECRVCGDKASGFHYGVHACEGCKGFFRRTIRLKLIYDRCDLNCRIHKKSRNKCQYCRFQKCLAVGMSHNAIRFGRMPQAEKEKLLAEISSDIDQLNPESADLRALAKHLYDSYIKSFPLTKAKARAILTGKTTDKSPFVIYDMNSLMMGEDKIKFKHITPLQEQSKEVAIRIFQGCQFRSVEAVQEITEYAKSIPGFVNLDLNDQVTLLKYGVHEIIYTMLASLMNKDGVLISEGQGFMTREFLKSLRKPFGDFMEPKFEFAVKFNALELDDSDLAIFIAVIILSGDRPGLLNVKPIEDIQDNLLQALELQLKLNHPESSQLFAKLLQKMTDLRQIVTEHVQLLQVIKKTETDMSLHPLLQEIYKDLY", "test": "Preliminary PPAR-gamma competition binding assays", "settings": "data not shown"}, "3T3-L1 fibroblasts": {"test_system": "3T3-L1 fibroblasts", "test": "Adipogenesis (triglyceride accumulation) in 3T3-L1 fibroblasts", "protocol": "After two days of growth in 6-well plates, cells were treated either with vehicle (0.1% DMSO) or with compounds for ten days. Fresh medium with compounds or vehicle was replenished every 48 h. Cells were washed with PBS twice and fixed in 10% formalin (Sigma) in PBS. After washing in PBS, cells were stained with freshly diluted Oil Red O in isopropanol for 1 h at room temperature. The cells were washed five times with PBS and visualized under an Olympus BH2 microscope. Quantitative accumulation of triglyceride was also measured under similar experimental conditions, except in this case cells were plated in 100-mm tissue culture dishes. Triglyceride was extracted with methanol:chloroform (2:1) mixture. […] Extracted triglyceride was measured by a colorimetric assay (GPO-Trinder, Sigma) according to manufacturer instructions.\nAfter 14 days cells were stained with Oil Red O, counterstained with methylene blue for visual assessment (FIG. 23B) and assayed for triglyceride accumulation."}, "IL-6": {"test_system": "IL-6", "test": "LPS-induced IL-6 production in RAW cells (ELISA)", "type": "cell-based", "settings": "RAW cells, 0.1, 1, 10, 50 or 100 pM, FIG. 10"}, "[1]": {"settings": "after fourteen days of treatment, p<0.05 vs vehicle"}, "[2]": {"settings": "ob/ob mice, 50 mg/kg, 14 days, FIG. 17A"}}}
{"smiles": "COC(=O)C(=Cc1cc(OC)cc(OC)c1)c1ccc(Oc2ccc(CC3SC(=O)NC3=O)cc2)cc1", "note": "(stereo not shown) [Compound 11, 3-(3,5-Dimethoxyphenyl)-2-{4-[4-(2,4-dioxothiazolidin-5-ylmethyl)-phenoxy]-phenyl}-acrylic acid methyl ester]", "values": [{"measurement": "inhibition of the activation of NF-kB (p65)", "setting": "NF-kB p65", "result": "inhibited"}, {"measurement": "reduction of free fatty acid (FFA) levels", "setting": "ob/ob mice; [1]", "result": 33, "unit": "%"}, {"measurement": "reduction of serum insulin", "setting": "ob/ob mice; [1]", "result": 58, "unit": "%"}, {"measurement": "reduction of triglycerides", "setting": "ob/ob mice; [1]", "result": 65, "unit": "%"}, {"measurement": "glycosylated hemoglobin after treatment", "setting": "ob/ob mice; after fourteen days of treatment, reduced from 5.2%, p=0.15, FIG. 18", "result": 3.8, "unit": "%"}, {"measurement": "dose response of glucose lowering", "setting": "ob/ob mice; ob/ob mice (n=8), three different doses, FIG. 19", "result": "dose dependent glucose lowering effect"}, {"measurement": "weight gain in treated and control animals", "setting": "ob/ob mice; ob/ob mice, 50 mg/kg oral once daily, 8 to 9 days", "result": "similar"}, {"measurement": "decrease in blood glucose levels", "setting": "ob/ob mice; ob/ob mice, 50 mg/kg oral once daily, 8 to 9 days, FIG. 21", "result": 59, "unit": "% vs. baseline"}, {"measurement": "normalization of blood glucose levels", "setting": "ob/ob mice; [2]", "result": "normalized by three days"}, {"measurement": "time to significant decrease of blood glucose levels", "setting": "ob/ob mice; [2]", "result": "≤ 48", "unit": "h"}, {"measurement": "body weight compared to vehicle treated group", "setting": "ob/ob mice; ob/ob mice, 50 mg/kg, 14 days, FIG. 17B", "result": "did not see any increase"}, {"measurement": "drop of serum insulin", "setting": "ob/ob mice; ob/ob mice, after 10 days of treatment, FIG. 6A", "result": 58, "unit": "%"}, {"measurement": "lowering of FFA compared to the control", "setting": "ob/ob mice; ob/ob mice, after 10 days of treatment, FIG. 6C", "result": 33, "unit": "%"}, {"measurement": "decrease in the GHb level compared to the control", "setting": "ob/ob mice; ob/ob mice, after 14 days of treatment, FIG. 6D", "result": 1.3, "unit": "%"}, {"measurement": "decrease in triglyceride as compared to the control", "setting": "ob/ob mice; ob/ob mice, after treatment for 10 days, FIG. 6B", "result": 65, "unit": "%"}, {"measurement": "drop in blood glucose level", "setting": "ob/ob mice; ob/ob mice, oral 50 mg/kg, 15 days, FIG. 2A", "result": 62, "unit": "%"}, {"measurement": "body weight, control vs treatment group", "setting": "ob/ob mice; ob/ob mice, oral 50 mg/kg, FIG. 2B", "result": "no significant increase"}, {"measurement": "in vivo potency relative to rosiglitazone on a mole-per-mole basis (more potent)", "setting": "ob/ob mice; ob/ob mice, same glucose lowering at 10 mg/kg", "result": 46, "unit": "%"}, {"measurement": "inhibition of COX-1 activity", "setting": "COX-1", "result": "Neither compound inhibited"}, {"measurement": "inhibition of LPS-induced IL-1-beta production", "setting": "IL-1-beta", "result": "inhibited IL-1-beta better than rosiglitazone"}, {"measurement": "body weight vs vehicle group", "setting": "DBA/1 Lac mice; FIG. 13A", "result": "no change"}, {"measurement": "clinical scores vs vehicle treated group", "setting": "DBA/1 Lac mice; FIG. 13B", "result": "significantly lower"}, {"measurement": "joints affected vs vehicle treated group", "setting": "DBA/1 Lac mice; FIG. 13C", "result": "significantly lower"}, {"measurement": "paw thickness vs vehicle treated group", "setting": "DBA/1 Lac mice; FIG. 13D", "result": "significantly lower"}, {"measurement": "glucose levels", "setting": "ZDF rats", "result": "normalizes glucose levels"}, {"measurement": "more weight gained than control animals", "setting": "ZDF rats; 50 mg/kg oral once daily, 8 to 9 days", "result": 13, "unit": "%"}, {"measurement": "decrease in blood glucose levels", "setting": "ZDF rats; 50 mg/kg oral once daily, 8 to 9 days, FIG. 21", "result": 50, "unit": "% vs baseline"}, {"measurement": "affinity (Ki) of PPAR-gamma, less than for rosiglitazone", "setting": "PPAR-gamma", "result": 6.5, "unit": "fold"}, {"measurement": "blood glucose level", "setting": "db/db mice; db/db male mice, oral 50 mg/kg, 15 days, FIG. 1A", "result": "substantial reduction"}, {"measurement": "decrease in blood glucose levels", "setting": "db/db mice; db/db mice, 50 mg/kg oral once daily, 8 to 9 days, FIG. 21", "result": 32, "unit": "% vs. baseline"}, {"measurement": "blood glucose lowering effect", "setting": "db/db mice; db/db mice, 50 mg/kg/day orally, 14 days, FIG. 16A", "result": "dramatic, comparable blood glucose lowering effects"}, {"measurement": "drop in triglyceride levels", "setting": "db/db mice; db/db mice, after 15 days of treatment, FIG. 5A", "result": 24, "unit": "%"}, {"measurement": "drop in FFA levels", "setting": "db/db mice; db/db mice, after 15 days of treatment, FIG. 5B", "result": 34, "unit": "%"}, {"measurement": "drop in the GHb level", "setting": "db/db mice; db/db mice, after 15 days of treatment, FIG. 5C", "result": 0.7, "unit": "%"}, {"measurement": "increase in the serum leptin level compared to the control group", "setting": "db/db mice; db/db mice, after 15 days of treatment, FIG. 5D", "result": 23, "unit": "°/a"}, {"measurement": "glucose lowering effect, maximal at 24 hrs", "setting": "db/db mice; db/db mice, single oral dose 50 mg/kg, at 24 hrs", "result": "23 % of 0 min"}, {"measurement": "duration of effect on blood glucose", "setting": "db/db mice; db/db mice, single oral dose, FIG. 4", "result": "≥ 24", "unit": "h"}, {"measurement": "maximal triglyceride accumulated, increase over control", "setting": "3T3-L1 fibroblasts; 3T3-L1 fibroblasts, 0.1, 1, 10 μM, no dexamethasone, insulin, IBMX, FIG. 23A", "result": 3.96, "unit": "fold"}, {"measurement": "cytotoxic concentrations", "setting": "3T3-L1 fibroblasts; 3T3-L1 system, data not shown", "result": "≥ 100", "unit": "µM"}, {"measurement": "inhibition of LPS-induced IL-6 production", "setting": "IL-6", "result": "better inhibitor of IL-6 than rosiglitazone"}]}
